According to patent US20080132577A1, “Use of agomelatine in obtaining medicaments intended for the treatment of smith-magenis syndrome” (LES LABORATOIRES SERVIER, priority 2006, published 2008):

What was measured:
[1] = test system: patients; assay: Clinical trials of agomelatine: acceptability, tolerability and drug interactions; format: in vivo, human
Excerpt: In fact, agomelatine makes it possible to act simultaneously on the behaviour disorders and on the resynchronisation of disturbed circadian rhythms.

[2] = test system: children with Smith-Magenis syndrome; assay: Exploratory phase II clinical study in children with Smith-Magenis syndrome (actigraphy, Achenbach questionnaire); format: in vivo, human; settings: agomelatine 1-5 mg/kg co-administered with acebutolol 10 mg/kg
Method: An exploratory phase II study was carried out in children with Smith-Magenis syndrome. Agomelatine 1-5 mg/kg was co-administered with acebutolol 10 mg/kg, a […]. The main analysis criteria were actigraphy parameters recorded over five periods of 30 consecutive days, after 30 days of treatment, and 3, 5 and 15 months of treatment, and also the Achenbach questionnaire, allowing the behaviour disorders to be assessed.
These major effects were carried over to the families, who, following the highly positive consequences of the treatment on family life, requested continuation of the treatment on a compassionate basis.

[3] = test system: Smith-Magenis syndrome patients; settings: evening exogenous melatonin with morning beta-adrenergic antagonists; cited from earlier work
[4] = actigraphy, up to 15 months of treatment

SMILES | drug interactions ([1]; human, in vivo) | clinical and biological tolerability ([1]; more than 4000 patients exposed in clinical trials) | behaviour (behaviour disorders, Achenbach questionnaire) [2] | clinical improvement found by a specialist [2] | sleep quality recorded [2] | duration of daytime naps [2, 4] | duration of night waking [2, 4] | frequency of night waking [2, 4] | activity in respect of the behaviour disorders [3]
COc1ccc2cccc(CCNC(C)=O)c2c1 [agomelatine, N-[2-(7-methoxy-1-naphthyl)ethyl]acetamide] | no drug interactions | excellent clinical and biological tolerability | Real progress in relation to behaviour | Major clinical improvement | a calm, deep sleep, less-broken nights and less-early waking in the morning | reduction in the duration of daytime naps | reduction | reduction | 
COc1ccc2[nH]cc(CCNC(C)=O)c2c1 [melatonin] |  |  |  |  |  |  |  |  | no activity
